This is an account of results in patent US20230144436A1, “MUSCLE TARGETING COMPLEXES AND USES THEREOF FOR TREATING MYOTONIC DYSTROPHY” (Dyne Therapeutics, Inc., priority 2020, published 2023).

The series deals with DMPK. As to the kind of experiment: DMPK knockdown by transfected antisense oligonucleotides in DM1 C15 myotubes at 0.5 nM and 50 nM. The class given is cell-based. Conditions: 72 hours; for Normalized DMPK Remaining: relative to vehicle control = 1.00. In short, it runs like this: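 Seven-day-differentiated DM1 C15 myotubes transfected (Lipofectamine MessengerMax) with each oligonucleotide at 0.5 nM or 50 nM final, biological triplicates. After 72 h, DMPK mRNA quantified by qPCR, expressed relative to vehicle-only transfection set to 1.00.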

Setting [1] is: 0.5 nM oligonucleotide, qPCR, relative to vehicle control.
[2] abbreviates: 50 nM oligonucleotide, qPCR, relative to vehicle control.

Take “434 (UUUCAUAGGCGAAUACACCC; chemistry not given here) [compound 434]”: where the note is “0.5 nM oligonucleotide”, the “Percent DMPK Reduction” value is on record as 5.56% and the “Normalized DMPK Remaining” value stood at 0.94. Under “50 nM oligonucleotide”, the “Percent DMPK Reduction” value was 53.28% and the “Normalized DMPK Remaining” value worked out at 0.47.
“289 (AUGACAAUCUCCGCCAGGUA; chemistry not given here) [compound 289]”: the “Percent DMPK Reduction” value under setting [1] came to 42.38% and the “Percent DMPK Reduction” value under setting [2] is listed as 60.47%. Also, the “Normalized DMPK Remaining” value (0.5 nM oligonucleotide, qPCR) is given as 0.58 and the “Normalized DMPK Remaining” value (50 nM oligonucleotide, qPCR) is given as 0.40.
“330 (CCAGCGCCCACCAGUCACAC; chemistry not given here) [compound 330]”: the “Percent DMPK Reduction” value is, setting by setting: under setting [1], 36.17%; under setting [2], 70.96%. Further, the “Normalized DMPK Remaining” value by setting is: (0.5 nM oligonucleotide, qPCR) 0.64; (50 nM oligonucleotide, qPCR) 0.29.
For “329 (UACACCUGGCCCGUCUGCUU; chemistry not given here) [compound 329]”, in that order: 31.10%, 57.43%, 0.69 and 0.43.
As to “350 (ACUUGCUCAGCAGUGUCAGC; chemistry not given here) [compound 350]”, the “Percent DMPK Reduction” value came out at 27.84% under setting [1] and 60.71% under setting [2]. Moreover, the “Normalized DMPK Remaining” value (0.5 nM oligonucleotide, qPCR) is 0.72 and the “Normalized DMPK Remaining” value (50 nM oligonucleotide, qPCR) is on record as 0.39.
As to “326 (CAGCGCCCACCAGUCACACU; chemistry not given here) [compound 326]”, the “Percent DMPK Reduction” value by setting is: under setting [1], 37.28%; under setting [2], 64.93%. Besides, the “Normalized DMPK Remaining” value stood at 0.63 (0.5 nM oligonucleotide, qPCR) and 0.35 (50 nM oligonucleotide, qPCR).
For “251 (CUCGGCCGGAAUCCGCUCCC; chemistry not given here) [compound 251]”, the “Percent DMPK Reduction” value under setting [1] was determined as 28.64% and the “Percent DMPK Reduction” value under setting [2] is 64.75%. In addition, the “Normalized DMPK Remaining” value (0.5 nM oligonucleotide, qPCR) came out at 0.71 and the “Normalized DMPK Remaining” value (50 nM oligonucleotide, qPCR) was determined as 0.35.
With “422 (GUAGUUCUCAUCCUGGAAGG; chemistry not given here) [compound 422]”, where the note is “0.5 nM oligonucleotide”, the “Percent DMPK Reduction” value is on record as 7.43% and the “Normalized DMPK Remaining” value is recorded as 0.93. Moreover, under “50 nM oligonucleotide”, the “Percent DMPK Reduction” value is on record as 55.09% and the “Normalized DMPK Remaining” value is given as 0.45.
For the substance “359 (UGCACGUGUGGCUCAAGCAG; chemistry not given here) [compound 359]”, the “Percent DMPK Reduction” value is, setting by setting: under setting [1], 10.81%; under setting [2], 64.18%. Moreover, the “Normalized DMPK Remaining” value is, setting by setting: (0.5 nM oligonucleotide, qPCR) 0.89; (50 nM oligonucleotide, qPCR) 0.36.
In the case of “460 (GGUCCAGCAGGAUGUUGUCG; chemistry not given here) [compound 460]”, where the note is “0.5 nM oligonucleotide”, the “Percent DMPK Reduction” value is recorded as 31.78% and the “Normalized DMPK Remaining” value was found to be 0.68. Besides, under “50 nM oligonucleotide”, the “Percent DMPK Reduction” value amounted to 79.93% and the “Normalized DMPK Remaining” value came to 0.20.
As for “454 (GCAGAGAGAGGUGCUCCUUG; chemistry not given here) [compound 454]”, for the setting “0.5 nM oligonucleotide”, the “Percent DMPK Reduction” value is recorded as 17.29% and the “Normalized DMPK Remaining” value is 0.83. Under “50 nM oligonucleotide”, the “Percent DMPK Reduction” value came out at 85.95% and the “Normalized DMPK Remaining” value stood at 0.14.
Turning to “265 (GUCGGGUUUGAUGUCCCUGU; chemistry not given here) [compound 265]”, the “Percent DMPK Reduction” value is given as 28.89% under setting [1] and 64.15% under setting [2]. Also, the “Normalized DMPK Remaining” value is on record as 0.71 (0.5 nM oligonucleotide, qPCR) and 0.36 (50 nM oligonucleotide, qPCR).
Consider “356 (CUGCCUGCAGCAACUCCAUC; chemistry not given here) [compound 356]”, for which the “Percent DMPK Reduction” value under setting [1] was 23.10% and the “Percent DMPK Reduction” value under setting [2] turned out to be 46.69%. Also, the “Normalized DMPK Remaining” value (0.5 nM oligonucleotide, qPCR) turned out to be 0.77 and the “Normalized DMPK Remaining” value (50 nM oligonucleotide, qPCR) was 0.53.
Regarding “456 (CCUCAGCCUGGCCGAAAGAA; chemistry not given here) [compound 456]”, the “Percent DMPK Reduction” value was 16.83% (0.5 nM oligonucleotide) and 63.99% (50 nM oligonucleotide). Besides, the “Normalized DMPK Remaining” value (0.5 nM oligonucleotide) is recorded as 0.83 and the “Normalized DMPK Remaining” value (50 nM oligonucleotide) was 0.36.
Consider “285 (AUCUCGGCCGGAAUCCGCUC; chemistry not given here) [compound 285]”, for which the “Percent DMPK Reduction” value reads like this: under setting [1], 11.61%; under setting [2], 65.98%. In addition, the “Normalized DMPK Remaining” value is, setting by setting: (0.5 nM oligonucleotide, qPCR) 0.88; (50 nM oligonucleotide, qPCR) 0.34.
For “458 (GUCGGCCAGGCGGAUGUGGC; chemistry not given here) [compound 458]”, the “Percent DMPK Reduction” value (0.5 nM oligonucleotide) was 15.35% and the “Percent DMPK Reduction” value (50 nM oligonucleotide) stood at 74.59%. The “Normalized DMPK Remaining” value by setting is: (0.5 nM oligonucleotide) 0.85; (50 nM oligonucleotide) 0.25.
On to “331 (GGCCUCAGCCUGGCCGAAAG; chemistry not given here) [compound 331]”, for which the “Percent DMPK Reduction” value was determined as 14.49% under setting [1] and 64.80% under setting [2]. Besides, the “Normalized DMPK Remaining” value (0.5 nM oligonucleotide, qPCR) amounted to 0.86 and the “Normalized DMPK Remaining” value (50 nM oligonucleotide, qPCR) was determined as 0.35.
For “287 (GCCAUCUCGGCCGGAAUCCG; chemistry not given here) [compound 287]”, in that order: 18.56%, 86.39%, 0.81 and 0.14.
For “308 (UGACAAUCUCCGCCAGGUAG; chemistry not given here) [compound 308]”, in that order: 38.86%, 66.56%, 0.61 and 0.33.
“387 (UCGAAGUUGCAUGUGUCGGU; chemistry not given here) [compound 387]”: where the note is “0.5 nM oligonucleotide”, the “Percent DMPK Reduction” value was 22.96% and the “Normalized DMPK Remaining” value was 0.77. Moreover, where the note is “50 nM oligonucleotide”, the “Percent DMPK Reduction” value was found to be 58.15% and the “Normalized DMPK Remaining” value stood at 0.42.
“440 (CAGGAGCAGGGAAAGCGCCU; chemistry not given here) [compound 440]”: where the note is “0.5 nM oligonucleotide”, the “Percent DMPK Reduction” value was 12.48% and the “Normalized DMPK Remaining” value came out at 0.88. Besides, for the setting “50 nM oligonucleotide”, the “Percent DMPK Reduction” value came to 51.82% and the “Normalized DMPK Remaining” value is reported as 0.48.
For “413 (GACAGACAAUAAAUACCGAG; chemistry not given here) [compound 413]”, in that order: 18.26%, 0.82, 38.07% and 0.62.
As to “370 (ACUUGUUCAUGAUCUUCAUG; chemistry not given here) [compound 370]”, the “Percent DMPK Reduction” value under setting [1] stood at 25.47% and the “Percent DMPK Reduction” value under setting [2] is listed as 52.89%. The “Normalized DMPK Remaining” value is reported as 0.75 (0.5 nM oligonucleotide, qPCR) and 0.47 (50 nM oligonucleotide, qPCR).
Regarding “363 (CAUGACCAGGUACAGGUAGU; chemistry not given here) [compound 363]”, the “Percent DMPK Reduction” value came out at 19.39% under setting [1] and 59.09% under setting [2]. Further, the “Normalized DMPK Remaining” value reads like this: (0.5 nM oligonucleotide, qPCR) 0.81; (50 nM oligonucleotide, qPCR) 0.41.
For “360 (GACAAUAAAUACCGAGGAAU; chemistry not given here) [compound 360]”, the “Percent DMPK Reduction” value runs as follows: under setting [1], 28.97%; under setting [2], 47.51%. The “Normalized DMPK Remaining” value is 0.71 (0.5 nM oligonucleotide, qPCR) and 0.52 (50 nM oligonucleotide, qPCR).
Consider “470 (AUUUCAUAGGCGAAUACACC; chemistry not given here) [compound 470]”, for which, under “0.5 nM oligonucleotide”, the “Percent DMPK Reduction” value is on record as -4.54% and the “Normalized DMPK Remaining” value was found to be 1.05. Also, for the setting “50 nM oligonucleotide”, the “Percent DMPK Reduction” value worked out at 44.15% and the “Normalized DMPK Remaining” value worked out at 0.56.
Take “341 (AGGGCGUCUGCCCAUAGAAC; chemistry not given here) [compound 341]”: the “Percent DMPK Reduction” value runs as follows: under setting [1], 13.23%; under setting [2], 58.98%. Moreover, the “Normalized DMPK Remaining” value (0.5 nM oligonucleotide, qPCR) was 0.87 and the “Normalized DMPK Remaining” value (50 nM oligonucleotide, qPCR) is given as 0.41.
As to “398 (ACGUGUGCCUCUAGGUCCCG; chemistry not given here) [compound 398]”, the “Percent DMPK Reduction” value runs as follows: (0.5 nM oligonucleotide) 16.47%; (50 nM oligonucleotide) 77.73%. The “Normalized DMPK Remaining” value (0.5 nM oligonucleotide) amounted to 0.84 and the “Normalized DMPK Remaining” value (50 nM oligonucleotide) is 0.22.
Regarding “439 (CACCAACACGUCCCUCUCCU; chemistry not given here) [compound 439]”, under “0.5 nM oligonucleotide”, the “Percent DMPK Reduction” value is listed as 37.51% and the “Normalized DMPK Remaining” value stood at 0.62. In addition, where the note is “50 nM oligonucleotide”, the “Percent DMPK Reduction” value is reported as 81.57% and the “Normalized DMPK Remaining” value was 0.18.
Take “424 (CCAUUCACCAACACGUCCCU; chemistry not given here) [compound 424]”: under “0.5 nM oligonucleotide”, the “Percent DMPK Reduction” value is reported as 39.26% and the “Normalized DMPK Remaining” value came out at 0.61. Further, where the note is “50 nM oligonucleotide”, the “Percent DMPK Reduction” value is listed as 86.83% and the “Normalized DMPK Remaining” value is on record as 0.13.
In the case of “390 (UCCUGCAACUGCCGGACGUG; chemistry not given here) [compound 390]”, under “0.5 nM oligonucleotide”, the “Percent DMPK Reduction” value worked out at 16.06% and the “Normalized DMPK Remaining” value amounted to 0.84. For the same substance, under “50 nM oligonucleotide”, the “Percent DMPK Reduction” value worked out at 44.61% and the “Normalized DMPK Remaining” value was 0.55.
For “429 (GCGGUCCAGCAGGAUGUUGU; chemistry not given here) [compound 429]”, in that order: 38.84%, 0.61, 83.64% and 0.16.
